The values that follow come from publication PMC8062304 (Journal of the American Chemical Society, 2021).

One data set deals with T1, carboxypeptidase Y (Saccharomyces cerevisiae, UniProt P00729).
T1 sequence (P00729 112-532): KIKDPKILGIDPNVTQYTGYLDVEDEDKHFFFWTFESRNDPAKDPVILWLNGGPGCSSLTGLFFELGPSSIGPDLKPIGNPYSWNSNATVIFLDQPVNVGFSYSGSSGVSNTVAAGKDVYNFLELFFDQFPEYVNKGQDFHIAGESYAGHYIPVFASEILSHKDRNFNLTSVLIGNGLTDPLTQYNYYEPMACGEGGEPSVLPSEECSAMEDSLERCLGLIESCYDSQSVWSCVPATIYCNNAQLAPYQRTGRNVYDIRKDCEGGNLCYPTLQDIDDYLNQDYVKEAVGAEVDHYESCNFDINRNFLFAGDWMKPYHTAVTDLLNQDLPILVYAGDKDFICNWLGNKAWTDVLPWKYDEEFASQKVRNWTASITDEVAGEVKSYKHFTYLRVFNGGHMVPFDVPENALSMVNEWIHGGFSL
Format: in vitro ADME. Particulars: after 2 h at 95 °C; CFB-produced lasso peptide from native BGC; Figure S7.

For data set [1], the system named is transcription/translation (production of the fluorescent protein mCherry). The format is biochemical, E. coli. The settings on record: CFB-produced capistruin supplied at 10 µM; compared to a control that omitted capistruin; fluorescence reporter.
The conditions of data set [2]: cited from earlier work.

burhizin: the “carboxypeptidase Y resistance after prolonged heating” value (shortened to “carboxypeptidase Y resistance”) at carboxypeptidase Y is recorded as “retained protease resistance”. In the case of “capistruin (GTPGFQTPDARVISRFGFN; Capistruin; UniProt P0DQM5 29-47, looked up)”, the “reduction in mCherry production” value in data set [1] amounted to 66%. With fusilassin, the “carboxypeptidase Y resistance” value at carboxypeptidase Y is reported as “efficient carboxypeptidase Y digestion”. Moreover, in data set [2], the “conformation after extended exposure to organic solvent” value is recorded as “adopted a branched-cyclic form”. As for cellulassin, the “carboxypeptidase Y resistance” value at carboxypeptidase Y is recorded as “efficient carboxypeptidase Y digestion”.
